± gives the expanded uncertainty stated by the source.
Conditions: Liquid, Closed cell (Static) method

vapor or sublimation pressure (353.15 K) | vapor or sublimation pressure (363.15 K) | Structure (SMILES)
20.74 ± 2.2 kPa | 30.23 ± 3.1 kPa | CCOC(=O)OCC [diethyl carbonate]
108.14 ± 11 kPa | 156.04 ± 16 kPa | CCO [ethanol]
47.33 ± 4.8 kPa | 70.07 ± 7 kPa | O [water]

— the NIST ThermoML archive (doi:10.1016/j.fluid.2012.11.026)
